Results published in publication PMC8401933 (Molecules, 2021).

Key:
[1] = biological target: T1, JAK3(JH1domain-catalytic) (Homo sapiens, UniProt P52333); experiment: KINOMEscan binding; settings: read-out: Percent Control
T1 construct: JAK3(JH1domain-catalytic); purchased Eurofins DiscoverX KINOMEscan

PKAC-alpha = biological target: T2, PKAC-alpha (Homo sapiens, UniProt P17612); experiment: KINOMEscan binding; settings: read-out: Percent Control
T2 construct: purchased Eurofins DiscoverX KINOMEscan

KIT = biological target: T3, KIT (Homo sapiens, UniProt P10721); experiment: KINOMEscan binding; settings: read-out: Percent Control
T3 construct: purchased Eurofins DiscoverX KINOMEscan

FLT3(R834Q) = biological target: T4, FLT3(R834Q) (Homo sapiens, UniProt P36888, R834Q); experiment: KINOMEscan binding; settings: read-out: Percent Control
T4 construct: purchased Eurofins DiscoverX KINOMEscan

GRK4 = biological target: T5, GRK4 (Homo sapiens, UniProt P32298); experiment: KINOMEscan binding; settings: read-out: Percent Control
T5 construct: purchased Eurofins DiscoverX KINOMEscan

LRRK2 = biological target: T6, LRRK2 (Homo sapiens, UniProt Q5S007); experiment: KINOMEscan binding; settings: read-out: Percent Control
T6 construct: purchased Eurofins DiscoverX KINOMEscan

[2] = oral, rat model; cited from earlier work
CDK2 = biological target: T7, CDK2 (Homo sapiens, UniProt P24941); experiment: KINOMEscan binding; settings: read-out: Percent Control
T7 construct: purchased Eurofins DiscoverX KINOMEscan

ALK(L1196M) = biological target: T8, ALK(L1196M) (Homo sapiens, UniProt Q9UM73, L1196M); experiment: KINOMEscan binding; settings: read-out: Percent Control
T8 construct: purchased Eurofins DiscoverX KINOMEscan

PRKCI = biological target: T9, PRKCI (Homo sapiens, UniProt P41743); experiment: KINOMEscan binding; settings: read-out: Percent Control
T9 construct: purchased Eurofins DiscoverX KINOMEscan

BRSK1 = biological target: T10, BRSK1 (Homo sapiens, UniProt Q8TDC3); experiment: KINOMEscan binding; settings: read-out: Percent Control
T10 construct: purchased Eurofins DiscoverX KINOMEscan

[3] = biological target: T11, ABL1(Q252H)-nonphosphorylated (Homo sapiens, UniProt P00519, Q252H); experiment: KINOMEscan binding; settings: read-out: Percent Control
T11 construct: purchased Eurofins DiscoverX KINOMEscan

PRKCE = biological target: T12, PRKCE (Homo sapiens, UniProt Q02156); experiment: KINOMEscan binding; settings: read-out: Percent Control
T12 construct: purchased Eurofins DiscoverX KINOMEscan

WEE2 = biological target: T13, WEE2 (Homo sapiens, UniProt P0C1S8); experiment: KINOMEscan binding; settings: read-out: Percent Control
T13 construct: purchased Eurofins DiscoverX KINOMEscan

HIPK2 = biological target: T14, HIPK2 (Homo sapiens, UniProt Q9H2X6); experiment: KINOMEscan binding; settings: read-out: Percent Control
T14 construct: purchased Eurofins DiscoverX KINOMEscan

FLT3(ITD,D835V) = experiment: KINOMEscan binding; parameters: species or system human; settings: 10 μM
MLK2 = biological target: T15, MLK2 (Homo sapiens, UniProt Q02779); experiment: KINOMEscan binding; settings: read-out: Percent Control
T15 construct: purchased Eurofins DiscoverX KINOMEscan

PKN1 = biological target: T16, PKN1 (Homo sapiens, UniProt Q16512); experiment: KINOMEscan binding; settings: read-out: Percent Control
T16 construct: purchased Eurofins DiscoverX KINOMEscan

IRAK1 = biological target: T17, IRAK1 (Homo sapiens, UniProt P51617); experiment: KINOMEscan binding; settings: read-out: Percent Control
T17 construct: purchased Eurofins DiscoverX KINOMEscan

AKT3 = biological target: T18, AKT3 (Homo sapiens, UniProt Q9Y243); experiment: KINOMEscan binding; settings: read-out: Percent Control
T18 construct: purchased Eurofins DiscoverX KINOMEscan

MERTK = biological target: T19, MERTK (Homo sapiens, UniProt Q12866); experiment: KINOMEscan binding; settings: read-out: Percent Control
T19 construct: purchased Eurofins DiscoverX KINOMEscan

NEK2 = biological target: T20, NEK2 (Homo sapiens, UniProt P51955); experiment: KINOMEscan binding; settings: read-out: Percent Control
T20 construct: purchased Eurofins DiscoverX KINOMEscan

ROCK2 = test system: ROCK2; parameters: method as in PMID 18832915; settings: cited from earlier work
CSNK1G1 = biological target: T21, CSNK1G1 (Homo sapiens, UniProt Q9HCP0); experiment: KINOMEscan binding; settings: read-out: Percent Control
T21 construct: purchased Eurofins DiscoverX KINOMEscan

AAK1 = biological target: T22, AAK1 (Homo sapiens, UniProt Q2M2I8); experiment: KINOMEscan binding; settings: read-out: Percent Control
T22 construct: purchased Eurofins DiscoverX KINOMEscan

NIK = biological target: T23, NIK (Homo sapiens, UniProt Q99558); experiment: KINOMEscan binding; settings: read-out: Percent Control
T23 construct: purchased Eurofins DiscoverX KINOMEscan

p38-beta = biological target: T24, p38-beta (Homo sapiens, UniProt Q15759); experiment: KINOMEscan binding; settings: read-out: Percent Control
T24 construct: purchased Eurofins DiscoverX KINOMEscan

PKAC-beta = biological target: T25, PKAC-beta (Homo sapiens, UniProt P22694); experiment: KINOMEscan binding; settings: read-out: Percent Control
T25 construct: purchased Eurofins DiscoverX KINOMEscan

PAK4 = biological target: T26, PAK4 (Homo sapiens, UniProt O96013); experiment: KINOMEscan binding; settings: read-out: Percent Control
T26 construct: purchased Eurofins DiscoverX KINOMEscan

PIK3CA(H1047L) = biological target: T27, PIK3CA(H1047L) (Homo sapiens, UniProt P42336, H1047L); experiment: KINOMEscan binding; settings: read-out: Percent Control
T27 construct: purchased Eurofins DiscoverX KINOMEscan

CSNK1A1L = biological target: T28, CSNK1A1L (Homo sapiens, UniProt Q8N752); experiment: KINOMEscan binding; settings: read-out: Percent Control
T28 construct: purchased Eurofins DiscoverX KINOMEscan

TLK2 = biological target: T29, TLK2 (Homo sapiens, UniProt Q86UE8); experiment: KINOMEscan binding; settings: read-out: Percent Control
T29 construct: purchased Eurofins DiscoverX KINOMEscan

CAMK2A = biological target: T30, CAMK2A (Homo sapiens, UniProt Q9UQM7); experiment: KINOMEscan binding; settings: read-out: Percent Control
T30 construct: purchased Eurofins DiscoverX KINOMEscan

CSNK1G2 = biological target: T31, CSNK1G2 (Homo sapiens, UniProt P78368); experiment: KINOMEscan binding; settings: read-out: Percent Control
T31 construct: purchased Eurofins DiscoverX KINOMEscan

CDK11 = biological target: T32, CDK11 (Homo sapiens, UniProt Q9BWU1); experiment: KINOMEscan binding; settings: read-out: Percent Control
T32 construct: purchased Eurofins DiscoverX KINOMEscan

YANK3 = biological target: T33, YANK3 (Homo sapiens, UniProt Q86UX6); experiment: KINOMEscan binding; settings: read-out: Percent Control
T33 construct: purchased Eurofins DiscoverX KINOMEscan

PIK3CA(Q546K) = biological target: T34, PIK3CA(Q546K) (Homo sapiens, UniProt P42336, Q546K); experiment: KINOMEscan binding; settings: read-out: Percent Control
T34 construct: purchased Eurofins DiscoverX KINOMEscan

S6K1 = biological target: T35, S6K1 (Homo sapiens, UniProt P23443); experiment: KINOMEscan binding; settings: read-out: Percent Control
T35 construct: purchased Eurofins DiscoverX KINOMEscan

INSRR = biological target: T36, INSRR (Homo sapiens, UniProt P14616); experiment: KINOMEscan binding; settings: read-out: Percent Control
T36 construct: purchased Eurofins DiscoverX KINOMEscan

EPHA4 = biological target: T37, EPHA4 (Homo sapiens, UniProt P54764); experiment: KINOMEscan binding; settings: read-out: Percent Control
T37 construct: purchased Eurofins DiscoverX KINOMEscan

TXK = biological target: T38, TXK (Homo sapiens, UniProt P42681); experiment: KINOMEscan binding; settings: read-out: Percent Control
T38 construct: purchased Eurofins DiscoverX KINOMEscan

CLK3 = biological target: T39, CLK3 (Homo sapiens, UniProt P49761); experiment: KINOMEscan binding; settings: read-out: Percent Control
T39 construct: purchased Eurofins DiscoverX KINOMEscan

DLK = biological target: T40, DLK (Homo sapiens, UniProt Q12852); experiment: KINOMEscan binding; settings: read-out: Percent Control
T40 construct: purchased Eurofins DiscoverX KINOMEscan

DYRK1B = biological target: T41, DYRK1B (Homo sapiens, UniProt Q9Y463); experiment: KINOMEscan binding; settings: read-out: Percent Control
T41 construct: purchased Eurofins DiscoverX KINOMEscan

T6 sequence (Q5S007 whole entry): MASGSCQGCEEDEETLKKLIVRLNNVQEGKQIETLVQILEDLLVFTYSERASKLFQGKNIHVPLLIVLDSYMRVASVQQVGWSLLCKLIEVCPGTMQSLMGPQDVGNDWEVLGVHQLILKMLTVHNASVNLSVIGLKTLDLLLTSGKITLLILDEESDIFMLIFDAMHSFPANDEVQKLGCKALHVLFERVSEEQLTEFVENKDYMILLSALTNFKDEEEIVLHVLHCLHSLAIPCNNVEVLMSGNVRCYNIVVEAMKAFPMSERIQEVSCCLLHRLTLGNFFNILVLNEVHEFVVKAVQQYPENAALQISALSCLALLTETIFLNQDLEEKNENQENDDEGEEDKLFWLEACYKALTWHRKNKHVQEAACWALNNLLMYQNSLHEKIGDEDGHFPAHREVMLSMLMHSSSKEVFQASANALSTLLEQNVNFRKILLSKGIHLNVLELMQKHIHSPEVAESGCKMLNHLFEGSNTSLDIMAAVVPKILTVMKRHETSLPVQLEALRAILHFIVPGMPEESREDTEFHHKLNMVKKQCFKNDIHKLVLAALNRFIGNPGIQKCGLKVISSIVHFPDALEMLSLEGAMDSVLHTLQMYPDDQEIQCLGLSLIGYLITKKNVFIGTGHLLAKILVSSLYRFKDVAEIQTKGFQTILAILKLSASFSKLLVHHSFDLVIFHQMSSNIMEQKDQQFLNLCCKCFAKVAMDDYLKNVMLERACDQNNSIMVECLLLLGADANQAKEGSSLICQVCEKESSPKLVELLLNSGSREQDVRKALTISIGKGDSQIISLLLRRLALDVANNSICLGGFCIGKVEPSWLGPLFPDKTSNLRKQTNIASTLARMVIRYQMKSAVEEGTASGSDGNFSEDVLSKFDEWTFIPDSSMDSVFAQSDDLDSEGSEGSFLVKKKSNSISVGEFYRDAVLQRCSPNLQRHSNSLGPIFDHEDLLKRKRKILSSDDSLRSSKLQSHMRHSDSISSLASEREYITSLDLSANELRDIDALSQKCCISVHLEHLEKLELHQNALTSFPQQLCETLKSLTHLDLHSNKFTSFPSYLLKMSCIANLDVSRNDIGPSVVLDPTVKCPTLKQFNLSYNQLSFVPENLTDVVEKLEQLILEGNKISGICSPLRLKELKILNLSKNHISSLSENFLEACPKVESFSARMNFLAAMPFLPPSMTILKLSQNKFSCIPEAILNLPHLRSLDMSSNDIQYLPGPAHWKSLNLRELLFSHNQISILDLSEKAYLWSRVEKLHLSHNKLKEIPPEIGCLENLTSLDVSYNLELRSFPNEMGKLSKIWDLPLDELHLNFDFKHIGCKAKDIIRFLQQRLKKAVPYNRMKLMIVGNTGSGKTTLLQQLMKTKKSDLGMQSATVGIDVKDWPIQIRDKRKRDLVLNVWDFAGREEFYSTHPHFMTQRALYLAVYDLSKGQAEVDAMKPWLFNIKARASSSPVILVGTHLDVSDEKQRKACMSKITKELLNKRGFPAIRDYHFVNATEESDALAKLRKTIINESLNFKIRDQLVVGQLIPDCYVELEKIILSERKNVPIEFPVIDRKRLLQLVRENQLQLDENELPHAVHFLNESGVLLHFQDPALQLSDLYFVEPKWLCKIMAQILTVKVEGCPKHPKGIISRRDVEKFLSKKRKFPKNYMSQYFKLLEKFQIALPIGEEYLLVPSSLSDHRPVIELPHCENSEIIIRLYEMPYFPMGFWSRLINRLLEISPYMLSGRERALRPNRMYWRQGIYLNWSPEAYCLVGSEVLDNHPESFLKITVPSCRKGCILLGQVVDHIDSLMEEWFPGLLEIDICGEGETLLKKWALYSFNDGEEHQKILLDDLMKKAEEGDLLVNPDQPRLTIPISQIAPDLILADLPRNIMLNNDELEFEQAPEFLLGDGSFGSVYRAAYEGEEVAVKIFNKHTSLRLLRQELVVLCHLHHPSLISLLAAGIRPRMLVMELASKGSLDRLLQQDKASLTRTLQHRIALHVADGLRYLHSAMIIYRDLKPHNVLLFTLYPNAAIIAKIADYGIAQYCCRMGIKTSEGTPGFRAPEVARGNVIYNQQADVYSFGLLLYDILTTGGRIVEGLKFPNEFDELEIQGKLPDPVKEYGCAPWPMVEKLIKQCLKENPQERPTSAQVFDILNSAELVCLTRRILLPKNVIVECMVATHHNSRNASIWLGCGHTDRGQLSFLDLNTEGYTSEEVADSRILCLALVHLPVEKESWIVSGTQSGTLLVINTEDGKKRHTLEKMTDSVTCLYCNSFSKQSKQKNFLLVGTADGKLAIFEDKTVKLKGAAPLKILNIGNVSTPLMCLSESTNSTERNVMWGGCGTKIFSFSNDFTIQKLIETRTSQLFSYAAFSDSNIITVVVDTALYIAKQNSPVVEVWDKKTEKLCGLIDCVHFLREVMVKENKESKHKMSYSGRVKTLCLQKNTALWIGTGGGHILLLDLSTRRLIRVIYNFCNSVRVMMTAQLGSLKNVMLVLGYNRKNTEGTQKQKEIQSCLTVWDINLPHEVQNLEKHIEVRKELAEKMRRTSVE
T31 sequence (P78368 whole entry): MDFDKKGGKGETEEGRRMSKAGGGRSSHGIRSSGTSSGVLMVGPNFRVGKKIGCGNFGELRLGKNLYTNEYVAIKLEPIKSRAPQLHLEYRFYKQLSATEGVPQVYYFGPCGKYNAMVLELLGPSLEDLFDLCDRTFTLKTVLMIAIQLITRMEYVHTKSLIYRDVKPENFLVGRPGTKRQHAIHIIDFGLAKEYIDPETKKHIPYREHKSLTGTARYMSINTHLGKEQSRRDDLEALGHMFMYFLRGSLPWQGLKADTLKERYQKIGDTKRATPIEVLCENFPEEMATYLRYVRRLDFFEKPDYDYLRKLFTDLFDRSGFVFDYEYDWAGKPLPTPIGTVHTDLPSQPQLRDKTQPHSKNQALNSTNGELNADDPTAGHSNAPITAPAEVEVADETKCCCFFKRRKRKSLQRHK
T17 sequence (P51617 whole entry): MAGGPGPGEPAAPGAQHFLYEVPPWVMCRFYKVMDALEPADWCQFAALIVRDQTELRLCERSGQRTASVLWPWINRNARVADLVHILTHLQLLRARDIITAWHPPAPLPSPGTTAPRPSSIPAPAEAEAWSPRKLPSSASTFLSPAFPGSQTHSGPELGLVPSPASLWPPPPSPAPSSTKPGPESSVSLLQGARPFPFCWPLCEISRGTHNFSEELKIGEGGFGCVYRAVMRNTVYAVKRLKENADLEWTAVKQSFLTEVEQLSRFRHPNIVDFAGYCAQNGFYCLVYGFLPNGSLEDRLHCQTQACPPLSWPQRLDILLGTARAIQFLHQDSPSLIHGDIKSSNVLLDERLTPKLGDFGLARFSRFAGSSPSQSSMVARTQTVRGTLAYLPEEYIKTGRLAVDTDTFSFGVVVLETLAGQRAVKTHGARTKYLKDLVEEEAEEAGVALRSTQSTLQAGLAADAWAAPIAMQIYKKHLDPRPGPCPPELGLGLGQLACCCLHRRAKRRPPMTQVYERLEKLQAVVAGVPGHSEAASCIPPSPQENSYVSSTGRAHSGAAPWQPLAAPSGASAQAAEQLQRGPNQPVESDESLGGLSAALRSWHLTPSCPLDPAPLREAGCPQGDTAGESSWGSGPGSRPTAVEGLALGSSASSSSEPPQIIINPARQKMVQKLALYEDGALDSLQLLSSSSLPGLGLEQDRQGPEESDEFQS
T37 sequence (P54764 20-986): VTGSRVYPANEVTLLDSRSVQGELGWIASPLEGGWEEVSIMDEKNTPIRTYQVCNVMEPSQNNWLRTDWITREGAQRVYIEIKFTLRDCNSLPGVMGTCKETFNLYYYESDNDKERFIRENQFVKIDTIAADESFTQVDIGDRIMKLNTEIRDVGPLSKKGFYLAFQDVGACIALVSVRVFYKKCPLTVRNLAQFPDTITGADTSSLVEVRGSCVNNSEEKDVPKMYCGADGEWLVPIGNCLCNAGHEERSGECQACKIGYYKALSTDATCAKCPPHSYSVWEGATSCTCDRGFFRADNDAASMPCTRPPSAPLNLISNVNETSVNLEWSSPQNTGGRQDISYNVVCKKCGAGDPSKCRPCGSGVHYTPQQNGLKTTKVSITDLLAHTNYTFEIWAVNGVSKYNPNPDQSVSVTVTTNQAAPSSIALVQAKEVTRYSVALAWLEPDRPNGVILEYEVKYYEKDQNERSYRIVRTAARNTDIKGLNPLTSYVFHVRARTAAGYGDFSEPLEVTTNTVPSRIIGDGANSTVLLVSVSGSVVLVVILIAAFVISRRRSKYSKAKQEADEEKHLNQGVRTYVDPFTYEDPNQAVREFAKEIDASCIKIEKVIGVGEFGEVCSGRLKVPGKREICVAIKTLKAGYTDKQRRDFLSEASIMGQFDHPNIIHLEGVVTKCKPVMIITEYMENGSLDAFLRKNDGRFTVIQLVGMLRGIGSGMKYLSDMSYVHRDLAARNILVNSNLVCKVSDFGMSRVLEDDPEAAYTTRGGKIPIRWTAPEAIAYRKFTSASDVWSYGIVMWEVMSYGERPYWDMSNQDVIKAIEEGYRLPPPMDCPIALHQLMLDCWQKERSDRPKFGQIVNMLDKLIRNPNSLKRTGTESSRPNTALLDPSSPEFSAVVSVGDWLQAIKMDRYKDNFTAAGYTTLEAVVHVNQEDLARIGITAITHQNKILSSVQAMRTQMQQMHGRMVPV
T24 sequence (Q15759 whole entry): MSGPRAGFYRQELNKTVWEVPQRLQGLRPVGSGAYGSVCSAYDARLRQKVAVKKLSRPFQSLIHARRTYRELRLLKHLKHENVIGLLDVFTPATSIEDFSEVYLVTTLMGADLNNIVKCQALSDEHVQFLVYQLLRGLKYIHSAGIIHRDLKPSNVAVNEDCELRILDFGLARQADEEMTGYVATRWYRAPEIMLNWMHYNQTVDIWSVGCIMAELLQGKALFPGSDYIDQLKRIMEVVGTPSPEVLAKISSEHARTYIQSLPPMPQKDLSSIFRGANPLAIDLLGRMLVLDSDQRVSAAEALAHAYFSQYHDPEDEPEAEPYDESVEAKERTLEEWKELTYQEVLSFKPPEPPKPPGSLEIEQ

## CC(C)NC(=O)COc1cccc(-c2nc(Nc3ccc4[nH]ncc4c3)c3ccccc3n2)c1 [KD025, 2-(3-(4-((1H-indazol-5-yl)amino)quinazolin-2-yl)phenoxy)-N-isopropylacetamide]
[1]
  remaining binding at 10 µM: 94%
PKAC-alpha
  remaining binding at 10 µM: 100%
KIT
  remaining binding at 10 µM: 79%
FLT3(R834Q)
  remaining binding at 10 µM: 69%
GRK4
  remaining binding at 10 µM: 16%
LRRK2
  remaining binding at 10 µM: 100%
[2]
  absolute bioavailability: 37%
CDK2
  remaining binding at 10 µM: 93%
ALK(L1196M)
  remaining binding at 10 µM: 95%
PRKCI
  remaining binding at 10 µM: 76%
BRSK1
  remaining binding at 10 µM: 93%
[3]
  remaining binding at 10 µM: 85%
PRKCE
  remaining binding at 10 µM: 88%
WEE2
  remaining binding at 10 µM: 82%
HIPK2
  remaining binding at 10 µM: 100%
FLT3(ITD,D835V)
  Percent Control: 28%
MLK2
  remaining binding at 10 µM: 100%
PKN1
  remaining binding at 10 µM: 97%
IRAK1
  remaining binding at 10 µM: 100%
AKT3
  remaining binding at 10 µM: 100%
MERTK
  remaining binding at 10 µM: 58%
NEK2
  remaining binding at 10 µM: 83%
ROCK2
  IC50: […]
CSNK1G1
  remaining binding at 10 µM: 70%
AAK1
  remaining binding at 10 µM: 29%
NIK
  remaining binding at 10 µM: 84%
p38-beta
  remaining binding at 10 µM: 93%
PKAC-beta
  remaining binding at 10 µM: 98%
PAK4
  remaining binding at 10 µM: 100%
PIK3CA(H1047L)
  remaining binding at 10 µM: 82%
CSNK1A1L
  remaining binding at 10 µM: 89%
TLK2
  remaining binding at 10 µM: 100%
CAMK2A
  remaining binding at 10 µM: 87%
CSNK1G2
  remaining binding at 10 µM: 60%
CDK11
  remaining binding at 10 µM: 99%
YANK3
  remaining binding at 10 µM: 76%
PIK3CA(Q546K)
  remaining binding at 10 µM: 84%
S6K1
  remaining binding at 10 µM: 74%
INSRR
  remaining binding at 10 µM: 83%
EPHA4
  remaining binding at 10 µM: 93%
TXK
  remaining binding at 10 µM: 76%
CLK3
  remaining binding at 10 µM: 68%
DLK
  remaining binding at 10 µM: 58%
DYRK1B
  remaining binding at 10 µM: 64%
